Test results reported in patent publication US20250073186A1, “COMBINATION TREATMENT METHODS” (Rose Research Center, LLC, priority 2021, published 2025).

Key:
smokers [1] = conditions: bupropion alone; cited from earlier work
cigarette smoking adults = test: Open-label switching study: side effects (AE/SAE reporting) and adherence; type: in vivo, human; conditions: zonisamide added to bupropion
Method: There was a data collection period of at least five days to obtain baseline data on use of combustible cigarettes. Participants enrolled in the study received a G6 e-cigarette at V2 for ad libitum use.
At each session, expired air CO was measured along with blood pressure, heart rate, respiratory rate and body weight. Participants also completed questionnaires rating subjective effects of smoking and e-cigarette use. Participants were given enough cartomizers and study drugs to last until their next scheduled session, along with an extra 4 days' worth to allow for flexibility in case sessions need to be rescheduled. E-cigarette usage and study drug compliance were tracked not only by self-reported number of occasions used, but also by cartomizer counts (used or unused) and returned study drugs.
AE/SAE Reporting AEs/SAEs were assessed using questionnaires and interviews at the indicated time points and spontaneous reporting from the time of ICF signature until the EOS for the participant.

smokers [2] = conditions: cited from earlier work

## CC(NC(C)(C)C)C(=O)c1cccc(Cl)c1 (centres unmarked) [bupropion]
Smokers [1]
  typical abstinence rate: ~25%

## NS(=O)(=O)Cc1noc2ccccc12 [zonisamide]
Cigarette smoking adults
  effect on adverse events associated with bupropion, such as insomnia: appeared to reduce incidences of adverse events associated with bupropion
Smokers [2]; during smoking abstinence
  effect on anger, restlessness and impatience: decrease anger, restlessness and impatience
Smokers [2]; in vivo
  effect on ad libitum smoking: reduce ad libitum smoking
  effect on craving for cigarettes: relieve craving for cigarettes
